Source: patent US10105467B2, “Biocompatible polymer compositions for tissue void filling” (Rutgers, The State University of New Jersey, priority 2013, dated 2018)

Assays:
[1] = tested on: rabbit liver esterase; assay: Incubation with rabbit liver esterase, HPLC analysis; format: in vitro ADME; conditions: 30 min
[2] = tested on: MDA-MB-231 breast cancer cells; assay: In vitro cytotoxicity, Alamar blue metabolic assay, scaffolds in transwell inserts; format: cell-based
Procedure: MDA-MB-231 breast cancer cells and primary human dermal fibroblasts (HDFs) were obtained from the ATCC (USA). Both cell types were cultured in DMEM supplemented with 10% fetal bovine serum (FBS) and 25 μg/mL Gentamicin. For toxicity studies HDFs were seeded at 5,000 cells per well/1 mL medium in a 12-well plate and allowed to reach confluency prior to application of experimental conditions. MDA-MB-231 cell were seeded in 12-well plates at a seeding density of 5,000 per well/1 mL medium and incubated at 37° C. in a humidified atmosphere of 95% air and 5% CO2 for 24 h prior to application of experimental conditions. […]
Cells subjected to these experimental conditions were allowed to culture for 6 days at which point cell viability was measured using Alamar blue metabolic assay. […] The supernatant from each well was transferred to a 96-well plate and was measured using a fluorescence plate reader (Tecan, Männedorf, Switzerland) by applying wavelength excitation of 560 nm and read it at emission of 590 nm, which is directly correlated to the viable cell number, and inversely correlated with the toxicity of the cross-linked polymer tissue scaffolds. The mean absorbance for each treatment was determined and then expressed as a percent of viability relative to the control. […]

conversion to the free acid [1] | SMILES | IC50 ([2]; Homo sapiens, 144 h, MDA-MB-231, 6 days, free curcumin dissolved in DMSO, diluted in media, max 1% DMSO) | curcumin uptake by cells or degradation after addition to media ([2]; free curcumin added to cell culture media)
approximately 70% | CCOC(=O)[C@H](Cc1ccc(O)cc1)NC(=O)CCc1ccc(O)cc1 [DTE, desaminotyrosyl-tyrosine ethyl ester] |  | 
 | COc1cc(/C=C/C(=O)CC(=O)/C=C/c2ccc(O)c(OC)c2)ccc1O [free curcumin, curcumin] | 14 µM | less than 48 hours
